Where “and” joins values, the source holds several entries; their conditions need not be identical. Equal entries are not always repeated.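 Tested at 5 concentrations; 48 h exposure; 96-well plates; endpoints linearly interpolated, else capped at highest concentration. GI50 is the concentration that inhibits growth by half. At the TGI there is no net growth.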

This experiment relates to MDA-MB-468 breast. The experiment can be described thus: NCI-60 cell line screen, 48 h.
In the case of `COc1ccc(C(=O)c2cc(OC)c3c(c2)OCO3)cc1O`, the GI50 is 0.366 µM and the TGI was 3.35 µM.

In the case of `O=C(Nc1cccc(Cl)c1)Nc1nc2ccc([N+](=O)[O-])cc2s1`, the GI50 is 1.04 µM and the TGI was found to be 3.25 µM.

With `O=c1c2ccc3cccc4c(=O)c5ccc6cccc1c6c5-c2c34`, the GI50 was greater than 50 µM and the TGI was greater than 50 µM.

For `CC(=O)Nc1cccc(Nc2nc(N[C@@H](C)c3ccccc3)c3ccccc3n2)c1`, the GI50 is 0.229 µM and the TGI stood at 0.818 µM.

On to `Nc1cc(-c2c[nH]c3ccc(Br)cc23)nc2cc(-c3c[nH]c4ccc(Br)cc34)nn12`, for which the GI50 was 1.59 µM and the TGI stood at 3.16 µM.

For the compound `O=NN(CCCl)C(=O)NCCCl`, the TGI was 146 µM and > 500 µM.

As for `O=C(Nc1ccc(CN2CCOCC2)cc1)c1ccc(-c2cc(Cl)ccc2Cl)o1`, the GI50 is 4.52 µM and the TGI worked out at 25.8 µM.

For `CCn1cc(C(=O)O)c(=O)c2cc(F)c(N3CCN(S(=O)(=O)c4ccc(Cl)cc4)CC3)cc21`, the GI50 is 2.1 µM and the TGI turned out to be 6.24 µM.

For the compound `O=C1c2ccccc2-c2nnc(-c3ccc(Br)cc3)cc21`, the GI50 was greater than 100 µM and the TGI was greater than 100 µM.

For `O=C(/C=C/c1ccc(Cl)cc1)/C=C/c1cc2ccccc2[nH]c1=O`, the GI50 is 2.35 µM and the TGI was 6.01 µM.

For the compound `O=C(N/N=C/c1ccccc1O)c1ccccc1O`, the GI50 is 0.427 µM and the TGI was found to be 5.56 µM.

For `CCN1CCN(c2cc(C)nc(N(CCNc3ccnc4cc(Cl)ccc34)Cc3ccc4c(c3)OCO4)n2)CC1`, the GI50 is 0.534 µM and the TGI came to 2.14 µM.

With `Fc1cnc(NC2CC2)nc1-c1cnc2ccc(N3CCOCC3)cn12`, the GI50 was 0.182 µM and the TGI turned out to be 0.429 µM.

Turning to `COc1cc2ncn(-c3cc(O[C@H](C)c4ccccc4Cl)c(C(N)=O)s3)c2cc1OC`, the GI50 is 0.00789 µM and the TGI worked out at 4 µM.

With `CCOc1nc(-c2ccccc2)cc2c(O)c(C(=O)N/N=C/c3ccc(O)cc3O)[nH]c(=O)c12`, the GI50 is 2.49 µM and the TGI came to 56.7 µM.

On to `CN1CCN(CCCOc2ccc3nc(Nc4cc(Cl)cc(Cl)c4)ccc3c2)CC1`, for which the GI50 was 1.6 µM and the TGI was 3.25 µM.

Consider `COc1ccc2[nH]c(-c3ccccc3)c(/C=C(\C#N)S(=O)(=O)c3ccccc3)c2c1`, for which the GI50 is 4.17 µM and the TGI is greater than 100 µM.

In the case of `CCOc1ccccc1NC1=C(Cl)C(=O)c2nc(C)ccc2C1=O`, the GI50 is 1.45 µM and the TGI turned out to be 2.88 µM.

Regarding `COc1cc(NCCCCCN=C(N)N)c2ncccc2c1`, the GI50 was 0.078 µM and the TGI worked out at 0.344 µM.

Take `CC(=O)O[C@H]1CCC2(C)C(=CCC3C2CCC2(C)/C(=N/OC(=O)c4ccc(N(CCCl)CCCl)cc4)CCC32)C1` (stereo not given in full): the GI50 is 31.1 µM and the TGI is greater than 100 µM.

As to `O=C1C=CC(=O)N1C1CCCCCCCCCCC1`, the GI50 is 2.21 µM and the TGI came out at 6.8 µM.

Consider `O=C1Nc2cc(Cl)ccc2/C1=C\c1c(-c2ccc(F)cc2)nc2ccccn12`, for which the GI50 was 0.448 µM and the TGI worked out at 2.25 µM.

Regarding `C[C@@H]1C[N+]2([O-])[C@H]3C4=CCC[C@@H]4CC[C@H]3[C@@]3(C)OC(=O)CC[C@]34CC[C@H]1[C@@H]42` (stereo not given in full), the GI50 is greater than 60 µM and the TGI was greater than 60 µM.

As to `CN(C)CCCOc1ccc(OCCCN(C)C)c2c1C(=O)c1ccccc1C2=O`, the GI50 was 0.58 µM and the TGI came to 2.95 µM.

For the compound `Nc1nc2c(c3ncccc13)C(c1cccc(Br)c1)Cc1ncccc1-2` (stereo not given), the GI50 was 0.349 µM and the TGI worked out at 7.66 µM.

`CCCCN1CCN(c2ccc3nc(-c4ccc5nc(-c6ccc(OC)c(OC)c6)[nH]c5c4)[nH]c3c2)CC1`: the GI50 was 0.37 µM and the TGI was 1.33 µM.

As for `O=C(N/N=C\c1ccc(Cl)cc1)c1ccc2nc(-c3ccc(Br)cc3)[nH]c2c1`, the GI50 is 2.02 µM and the TGI turned out to be 3.86 µM.

As for `CCOC(=O)N1C/C(=C/c2ccc(F)cc2)C(=O)/C(=C/c2ccc(F)cc2)C1`, the GI50 is 1.26 µM and the TGI turned out to be 2.9 µM.

As to `CCCS(=O)(=O)Nc1ccc(F)c(C(=O)c2c[nH]c3ncc(Cl)cc23)c1F`, the GI50 is 7.64 µM and the TGI came out at 49.5 µM.

Consider `CN1CCc2c(c3ccccc3c3ccccc23)C1`, for which the GI50 is 2.22 µM and the TGI was found to be 9.94 µM.

`O=C(Nc1cccc(-n2cc(-c3ccncc3)c(-c3ccc(Cl)c(O)c3)n2)c1)Nc1ccc(Cl)c(C(F)(F)F)c1`: the GI50 is 0.547 µM and the TGI is 2.23 µM.

Turning to `CCc1ccc(CNCC(O)c2ccccc2)cc1` (stereo not given), the GI50 is 13.2 µM and the TGI is 28.2 µM.

For `O=c1c2cc(F)ccc2sc2c(N3CCNCC3)nc3ccccc3c12`, the GI50 was 1.58 µM and the TGI stood at 3.19 µM.

Values taken from PubChem BioAssay (NCI).
